Results on 22 molecules are retold here after patent publication US9365522B2, “Pyrazole amide derivative” (AMGEN INC., priority 2015, dated 2016).

Molecules are shown by their SMILES. Where only a bound is given, the exact number is not on record here.

The assay concerns the target T1, ligand binding domain of human ROR gamma (Homo sapiens, UniProt P51449).
T1 construct: NM_001001523; expressed in transfected cells; host or cells: HEK293T
T1 sequence (P51449 247-497 isoform P51449-2): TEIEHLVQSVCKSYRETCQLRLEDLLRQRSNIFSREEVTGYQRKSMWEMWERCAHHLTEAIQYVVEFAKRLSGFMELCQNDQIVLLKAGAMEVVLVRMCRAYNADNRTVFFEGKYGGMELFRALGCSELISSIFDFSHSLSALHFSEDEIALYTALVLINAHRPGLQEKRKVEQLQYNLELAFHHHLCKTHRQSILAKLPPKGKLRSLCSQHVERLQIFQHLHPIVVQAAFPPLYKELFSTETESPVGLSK
The assay can be described thus: ROR gamma reporter gene assay (GAL4-RORγ LBD luciferase, Dual-Glo). It counts as cell-based. Conditions: HEK293T cells transfected with pM-ROR gamma, 8 concentrations 3.5 nM to 10.5 μM, 24 h incubation; read-out: result (pIC50, inhibition of RORγ transcriptional activity) (converted). In outline:
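HEK293T cells were co-transfected with GAL4 DBD fused to human RORγ LBD (aa 247-497), a 5×UAS firefly luciferase reporter and CMV-driven renilla luciferase, in medium with 10% charcoal-stripped FBS.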
For orientation: A reporter such as luciferase makes a cellular process visible.

With `CC(C)(C)CN(CC(=O)c1c(F)cccc1Cl)C(=O)c1cnn([C@H]2CC[C@](C)(C(=O)O)CC2)c1C(F)(F)F` [Example 297, trans-4-(4-((2-(2-chloro-6-fluorophenyl)-2-oxoethyl)-(2,2-dimethylpropyl)carbamoyl)-5-(trifluoromethyl)pyrazol-1-yl)-1-methylcyclohexane-1-carboxylic acid], the IC50 is 66100 pM.
Next, `O=C(CN(CC1(F)CCCC1)C(=O)c1cnn(C23CCC(C(=O)O)(CC2)CC3)c1C(F)(F)F)c1c(Cl)cc(Cl)cc1Cl` [Example 298, 4-(4-((1-fluorocyclopentyl)methyl-(2-oxo-2-(2,4,6-trichlorophenyl)ethyl)carbamoyl)-5-(trifluoromethyl)pyrazol-1-yl)bicyclo[2.2.2]octane-1-carboxylic acid]: 12900 pM.
`O=C(CN(CC1(F)CCCC1)C(=O)c1cnn(C23CCC(C(=O)O)(CC2)CC3)c1C(F)(F)F)c1c(Cl)cncc1Cl` [Example 299, 4-(4-((2-(3,5-dichloropyridin-4-yl)-2-oxoethyl)-((1-fluorocyclopentyl)methyl)carbamoyl)-5-(trifluoromethyl)pyrazol-1-yl)bicyclo[2.2.2]octane-1-carboxylic acid]: the IC50 was 20900 pM.
Next, `Cc1cc(Cl)c(C(=O)CN(CC2(F)CCCC2)C(=O)c2cnn(C34CCC(C(=O)O)(CC3)CC4)c2C(F)(F)F)c(Cl)c1` [Example 300, 4-(4-((2-(2,6-dichloro-4-methyIphenyl)-2-oxoethyl)-((1-fluorocyclopentyl)methyl)carbamoyl)-5-(trifluoromethyl)pyrazol-1-yl)bicyclo[2.2.2]octane-1-carboxylic acid]: 24000 pM.
Take `CC1(C)CCC(N(CC(=O)c2c(Cl)cc(F)cc2Cl)C(=O)c2cnn([C@H]3CC[C@@](C)(C(=O)O)CC3)c2C(F)(F)F)CC1` [Example 301, cis-4-(4-((2-(2,6-dichloro-4-fluorophenyl)-2-oxoethyl)-(4,4-dimethylcyclohexyl)carbamoyl)-5-(trifluoromethyl)pyrazol-1-yl)-1-methylcyclohexane-1-carboxylic acid]: the IC50 is 186000 pM.
Next, `CCC(C)(C)CN(CC(=O)c1c(Cl)cc(F)cc1Cl)C(=O)c1cnn([C@H]2CC[C@](C)(C(=O)O)CC2)c1C(F)(F)F` [Example 302, trans-4-(4-((2-(2,6-dichloro-4-fluorophenyl)-2-oxoethyl)-(2,2-dimethylbutyl)carbamoyl)-5-(trifluoromethyl)pyrazol-1-yl)-1-methylcyclohexane-1-carboxylic acid]: 14800 pM; `CN1C2CCC1CC(N(CC(=O)c1c(Cl)cc(F)cc1Cl)C(=O)c1cnn([C@H]3CC[C@](C)(C(=O)O)CC3)c1C(F)(F)F)C2` (stereo partly drawn) [Example 303, trans-4-(4-((2-(2,6-dichloro-4-fluorophenyl)-2-oxoethyl)-(8-methyl-8-azabicyclo[3.2.1]octan-3-yl)carbamoyl)-5-(trifluoromethyl)pyrazol-1-yl)-1-methylcyclohexane-1-carboxylic acid]: over 3.47e+06 pM.
Next, `C[C@]1(C(=O)O)CC[C@H](n2ncc(C(=O)N(CC(=O)c3c(Cl)cc(F)cc3Cl)C3CC4CCC(C3)N4)c2C(F)(F)F)CC1` (stereo partly drawn) [Example 304, trans-4-(4-(8-azabicyclo [3.2.1]octan-3-yl-(2-[2,6-dichloro-4-fluorophenyl)-2-oxoethyl)carbamoyl)-5-(trifluoromethyl)pyrazol-1-yl)-1-methylcyclohexane-1-carboxylic acid]: over 1.05e+07 pM; `CC(C)N1C2CCC1CC(N(CC(=O)c1c(Cl)cc(F)cc1Cl)C(=O)c1cnn([C@H]3CC[C@](C)(C(=O)O)CC3)c1C(F)(F)F)C2` (stereo partly drawn) [Example 305, trans-4-(4-((2-(2,6-dichloro-4-fluorophenyl)-2-oxoethyl)-(8-propan-2-yl-8-azabicyclo[3.2.1]octan-3-yl)carbamoyl)-5-(trifluoromethyl)pyrazol-1-yl)-1-methylcyclohexane-1-carboxylic acid]: over 1.05e+07 pM; `CCC(C)(C)CN(CC(=O)c1c(Cl)cc(Cl)cc1Cl)C(=O)c1cnn([C@H]2CC[C@](C)(C(=O)O)CC2)c1C(F)(F)F` [Example 306, trans-4-(4-(2,2-dimethylbutyl-(2-oxo-2-(2,4,6-trichlorophenyl)ethyl)carbamoyl)-5-(trifluoromethyl)pyrazol-1-yl)-1-methylcyclohexane-1-carboxylic acid]: 8320 pM.
As to `Cc1cc(Cl)c(C(=O)CN(Cc2cc(F)cc(F)c2)C(=O)c2cnn([C@H]3CC[C@H](C(=O)O)CC3)c2C(F)(F)F)c(C#N)c1` [Example 307, trans-4-(4-((2-(2-chloro-6-cyano-4-methylphenyl)-2-oxoethyl)-((3,5-difluorophenyl)methyl)carbamoyl)-5-(trifluoromethyl)pyrazol-1-yl)cyclohexane-1-carboxylic acid], the IC50 was 8.32e+06 pM.
The same measure for `CCC(C)(C)CN(CC(=O)c1c(Cl)cc(Cl)cc1Cl)C(=O)c1cnn(C23CCC(C(=O)O)(CC2)CC3)c1C(F)(F)F` [Example 308, 4-(4-(2,2-dimethylbutyl-(2-oxo-2-(2,4,6-trichlorophenyl)ethyl)carbamoyl)-5-(trifluoromethyl)pyrazol-1-yl)bicyclo[2.2.2]octane-1-carboxylic acid]: 16600 pM; for `CCC(C)(C)CN(CC(=O)c1c(Cl)cc(F)cc1Cl)C(=O)c1cnn(C23CCC(C(=O)O)(CC2)CC3)c1C(F)(F)F` [Example 309, 4-(4-((2-(2,6-dichloro-4-fluorophenyl)-2-oxoethyl)-(2,2 dimethylbutyl)carbarnoyl)-5-(trifluoromethyl)pyrazol-1-yl)bicyclo [2.2.2] octane-1-carboxylic acid]: 11200 pM; for `CC(C)(C)CN(CC(=O)c1c(Cl)cncc1Cl)C(=O)c1cnn([C@H]2CC[C@](C)(C(=O)O)CC2)c1C#N` [Example 310, trans-4-(5-cyano-4-((2-(3,5-dichloropyridin-4-yl)-2-oxoethyl)-(2,2-dimethylpropyl)carbamoyl)pyrazol-1-yl)-1-methylcyclohexane-1-carboxylic acid]: over 1.05e+07 pM.
`CN1C(C)(C)CC(N(CC(=O)c2c(Cl)cncc2Cl)C(=O)c2cnn([C@H]3CC[C@](C)(C(=O)O)CC3)c2C(F)(F)F)CC1(C)C` [Example 311, trans-4-(4-((2-(3,5-dichloropyridin-4-yl)-2-oxoethyl)-(1,2,2,6,6-pentamethylpiperidin-4-yl)carbamoyl)-5-(trifluoromethyl)pyrazol-1-yl)-1-methylcyclohexane-1-carboxylic acid]: the IC50 is over 1.05e+07 pM.
Next, `CC(C)CC(C)N(CC(=O)c1c(Cl)cncc1Cl)C(=O)c1cnn([C@H]2CC[C@](C)(C(=O)O)CC2)c1C(F)(F)F` (stereo partly drawn) [Example 312, trans-4-(4-((2-(3,5-dichloropyridin-4-yl)-2-oxoethyl)-(4-methylpentan-2-yl)carbamoyl)-5-(trifluoromethyl)pyrazol-1-yl)-1-methylcyclohexane-1-carboxylic acid]: 52500 pM; `COCC(C)N(CC(=O)c1c(Cl)cncc1Cl)C(=O)c1cnn([C@H]2CC[C@](C)(C(=O)O)CC2)c1C(F)(F)F` (stereo partly drawn) [Example 313, trans-4-(4-((2-(3,5-dichloropyridin-4-yl)-2-oxoethyl)-(1-methoxypropan-2-yl)carbamoyl)-5-(trifluoromethyl)pyrazol-1-yl)-1-methylcyclohexane-1-carboxylic acid]: 1.55e+06 pM.
The same measure for `CC(C)=CCN(CC(=O)c1c(Cl)cncc1Cl)C(=O)c1cnn([C@H]2CC[C@](C)(C(=O)O)CC2)c1C(F)(F)F` [Example 314, trans-4-(4-((2-(3,5-dichloropyridin-4-yl)-2-oxoethyl)-(3-methylbut-2-enyl)carbamoyl)-5-(trifluoromethyl)pyrazol-1-yl)-1-methylcyclohexane-1-carboxylic acid]: 41700 pM; for `COc1cncc(Cl)c1C(=O)CN(CC(C)(C)C)C(=O)c1cnn([C@H]2CC[C@](C)(C(=O)O)CC2)c1C(F)(F)F` [Example 315, trans-4-(4-((2-(3-chloro-5-methoxypyridin-4-yl)-2-oxoethyl)-(2,2-dimethylpropyl)carbamoyl)-5-(trifluoromethyl)pyrazol-1-yl)-1-methylcyclohexane-1-carboxylic acid]: 55000 pM; for `CC1(CN(CC(=O)c2c(Cl)cncc2Cl)C(=O)c2cnn(C34CCC(C(=O)O)(CC3)CC4)c2C(F)(F)F)CC1` [Example 316, 4-(4-((2-(3,5-dichioropyridin-4-yl)-2-oxoethyl)-((1-methylcyclopropyl)methyl)carbamoyl)-5-(trifluoromethyl)pyrazol-1-yl)bicyclo[2.2.2]octane-1-carboxylic acid]: 9120 pM.
The same measure for `CC(C)(C)CN(CC(=O)c1c(Cl)cccc1Cl)C(=O)c1cnn(C23CCC(C(=O)O)(CC2)CC3)c1C(F)(F)F` [Example 317, 4-(4-((2-(2,6-dichlorophenyl)-2-oxoethyl)-(2,2-dimethylpropyl)carbamoyl)-5-(trifluoromethyl)pyrazol-1-yl)bicyclo[2.2.2]octane-1-carboxylic acid]: 10000 pM; for `CC(C)(C)OCCN(CC(=O)c1c(Cl)cncc1Cl)C(=O)c1cnn([C@H]2CC[C@](C)(C(=O)O)CC2)c1C(F)(F)F` [Example 318, trans-4-(4-((2-(3,5-dichloropyridin-4-yl)-2-oxoethyl)-(2-((2-methylpropan-2-yl)oxy)ethyl)carbamoyl)-5-(trifluoromethyl)pyrazol-1-yl)-1-methylcyclohexane-1-carboxylic acid]: 20000 pM.
